The values that follow come from article PMC3081901 (Bioorganic & medicinal chemistry letters, 2010).

The assay has as its target T1, human A1 AR (Homo sapiens, UniProt P30542).
T1 sequence (P30542 1-326): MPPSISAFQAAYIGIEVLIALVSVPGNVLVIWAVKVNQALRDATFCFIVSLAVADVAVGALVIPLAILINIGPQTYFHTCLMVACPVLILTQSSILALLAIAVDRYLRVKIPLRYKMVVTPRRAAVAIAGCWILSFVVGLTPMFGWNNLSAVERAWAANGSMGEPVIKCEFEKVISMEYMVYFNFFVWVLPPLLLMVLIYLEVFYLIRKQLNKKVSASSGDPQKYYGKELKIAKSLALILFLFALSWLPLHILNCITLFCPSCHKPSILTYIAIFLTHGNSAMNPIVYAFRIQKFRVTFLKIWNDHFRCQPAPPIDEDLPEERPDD
Nature of the assay: Competition radioligand binding, human A1 AR.

A word on the Ki: it is the dissociation constant of the complex between target and ligand, obtained from inhibition or displacement. Low readings indicate higher affinity, high ones lower affinity.

On to `Nc1nc2c(cnn2CCCc2ccc(OCC(=O)NCCNCCNC(=O)CCCCCNC(=O)COc3ccc(/C=C/C4=[N+]5C(=Cc6ccc(-c7ccc[nH]7)n6[B-]5(F)F)C=C4)cc3)cc2)c2nc(-c3ccco3)nn12` [Compound 14], for which affinity was put at a Ki of 4.18 ± 0.92 µM.
